Assay results taken from patent US4579859A, “Vasodilating trinitratoalkyl esters of 2-cyano-1,4-dihydropyridines” (Fujisawa Pharmaceutical Co., Ltd., priority 1983, dated 1986).
Converted amounts (≈) assume the structure as drawn. Like-named read-outs stand apart in the source and are kept apart here.

System: isolated coronary artery
Assay: Effect on isolated coronary artery (relaxation of KF-contracted spiral strips; papaverine 10^-4 M = 100%)
Parameters: species or system dogs
Settings: Canis lupus familiaris, read-out: ED50 values
Procedure: The large coronary arteries, 2.0 mm in outside diameter were removed from pentobarbital-anesthetized dogs. Spiral strips approximately 15 mm in length were cut from the large arteries, and suspended in an organ bath containing calcium-free-Tyrode's solution with EGTA 0.2 mM at 37° C., aerated with a gas mixture of 95% oxygen and 5% carbon dioxide. The tonus of the strips was recorded on a polygraph with a force-displacement transducer. After the initial resting tension was adjusted to 1.0 g for the large artery, potassium fluoride 10 mM was added to the organ bath to increase the tonus of the large arterial strips to 1.4-1.6 g.
The cumulative concentrations of the test compound were then added, and finally paraverine 10^-4 M was given to determine maximum relaxation. ED50 values were calculated by interpolation from the mean cumulative dose-activity curves (effect of papaverine 10^-4 M=100%).

EC50 (isolated dog large coronary artery strips, calcium-free Tyrode's solution with EGTA 0.2 mM, 37° C., tonus by potassium fluoride 10 mM, cumulative concentrations, papaverine 10^-4 M = 100%) [µg/mL] | SMILES | EC50 [µg/mL]
– | CCOC(=O)C1=C(C)NC(C)=C(C(=O)OCC(CO[N+](=O)[O-])(CO[N+](=O)[O-])CO[N+](=O)[O-])C1c1cccc(Cl)c1Cl (stereo not drawn) [Compound A, 3-Nitrooxy-2,2-bis(nitrooxymethyl)propyl ester of 4-(2,3-dichlorophenyl)-5-ethoxycarbonyl-2,6-dimethyl-1,4-dihydropyridine-3-carboxylic acid] | 0.97 (≈ 1.56 µM)
– | COC(=O)C1=C(C#N)NC(C)=C(C(=O)OCC(CO[N+](=O)[O-])(CO[N+](=O)[O-])CO[N+](=O)[O-])C1c1cccc([N+](=O)[O-])c1 (stereo not drawn) [Compound B, 3-Nitrooxy-2,2-bis(nitrooxymethyl)propyl ester of 6-cyano-5-methoxycarbonyl-2-methyl-4-(3-nitrophenyl)-1,4-dihydropyridine-3-carboxylic acid] | 0.17 (≈ 0.285 µM)
> 1 | COC(=O)C1=C(C)NC(C)=C(C(=O)OC)C1c1ccccc1[N+](=O)[O-] [Nifedipine, Dimethyl esters of 2,6-dimethyl-4-(2-nitrophenyl)-3,5-dicarboxylic acid, reference compound] | –
